Experimental data reported in patent publication US20230105108A1, “COMPOUNDS FOR THE TREATMENT OF BACTERIAL INFECTIONS AND POTENTIATION OF ANTIBIOTICS” (GEORGIA STATE UNIVERSITY RESEARCH FOUNDATION, INC., priority 2019, published 2023).
Structures can show the parent of a compound that is named as a salt. Where two headings read alike, the source gives them in different places.

Experiments:
E. coli = experiment: Sensitization of E. coli (sensitization fold), Example 2; format: cell-based
Procedure: The sensitization fold of select compounds of the present invention was determined. E. coli bacteria were cultured in nutrient broth at 37° C. overnight prior to treatment. […] Bacterial density was measured based on OD600.

[1] = Cytotoxicity in H9c2 cells (CCK-8); format: cell-based; settings: rat, H9c2 cells; for IC50 at 24 h: H9c2 cells (ATCC CRL-1446); for CC50 at 24 h: H9c2 cell line
Procedure: The cytotoxicity in H9c2 (ATCC®CRL-1446™) cells was also determined. The H9c2 cells were maintained in DMEM (Dulbecco's Modified Eagle's Medium) supplemented with 10% fetal bovine serum (MidSci; S01520HI) and 1% penicillin-streptomycin (Sigma-Aldrich; P4333) at 37° C. with 5% CO2. The H9c2 cells were seeded in 96-well plate one day before the experiment. Different concentrations of di-amidine compounds were added into the H9c2 cells. The cells were then incubated with the compounds for 24 hours at 37° C. with 5% CO2. The cell viability was tested by the CCK-8. Specifically, after 24 hour incubation, 10 μL CCK-8 was added to each well. After 3 hours incubation at 37° C., the absorbance at 450 nm was recorded by a plate reader.

E. coli (ATCC 25922) = experiment: MIC determination, sensitization fold and FIC index on E. coli; format: cell-based; settings: for MIC: Escherichia coli, ATCC25922, 24 h; for sensitization activity: compound at up to 10 μM; for Sensitization: compound up to 25 μM
Procedure: (§1) Bacteria culture and MICs determination: Gram-negative bacteria were cultured in Mueller Hinton II cation-adjusted broth. Gram-positive bacteria were cultured in LB broth. Mycobacterium smegmatis was cultured in Middlebrook 7H9 Broth. MICs of antibiotics itself were determined by performing two-fold serial dilutions of antibiotics. MICs of antibiotics in the presence of bacterial sensitizers were determined by performing two-fold serial dilutions of antibiotics with or without a constant concentration of bacterial sensitizers. The MICs tests were performed on 96-well plates with a final volume of 200 μl Mueller Hinton II cation-adjusted broth in each well. Each well was inoculated with 5×10^5 CFU/ml bacteria and was incubated for 24 h at 37° C. with continuous shaking of 200 rpm. The bacterial density was then determined by OD600. Bacterial growth %=OD600 of antibiotic treatment group/OD600 of antibiotic non-treatment group. MICs was determined as the concentrations that inhibit more than 90% of bacteria growth.
(§2) Sensitization fold determination and FIC index calculations: Sensitization fold=MIC of antibiotic only/MIC of antibiotic with bacterial sensitizer. […] Since the MICs were determined by performing two-fold serial dilutions of antibiotic, so the sensitization fold can is the times of 2.
FIC index between compound a and b was calculated according to the formula below: […]
FIC≤0.5: Synergy; FIC between 0.5 and 1: Additive; FIC between 1 and […]: no interaction; FIC >4: antagonism.
(§3) Bacteria strains (as indicated in Table 5B) were cultured with rifampicin at various concentrations in the presence or absence of 10 μM of the indicated compound for 20 h at 37° C. The MIC, sensitization, cytotoxicity, and MIC on mycobacteria were tested according to methods described herein. […] The sensitization activities of compounds on MRSA were tested using rifampicin. The sensitization activities of compounds on E. coli were tested using rifampicin.

MRSA (ATCC 33592) = experiment: MIC determination and sensitization fold on MRSA; format: cell-based, methicillin-resistant Staphylococcus aureus; settings: for MIC: Staphylococcus aureus, 24 h; for Sensitization fold: rifampicin
Procedure: Bacteria strains: E. coli (ATCC 25922), A. baumannii (ATCC 17978), K. pneumoniae (43816), S. maltophilia (ATCC 31559), S. typhimurium (ATCC 14028), C. werkmanii (ATCC 51114), S. aureus (ATCC 12600) and methicillin-resistant Staphylococcus aureus (MRSA, ATCC 33592) strains were purchased from ATCC. NR698 was provided.
as §1, §2, §3

[2] = Cytotoxicity on mammalian cells (CCK-8), HEK293; format: cell-based; settings: human, HEK293 cells; HEK293 cell line; 24 h
Procedure: (§4) Cytotoxicity test of bacterial sensitizers on mammalian cells. Cell viability was assessed by using Cell Counting Kit-8 (CCK-8, Dojindo, Japan). HEK293 or NIH3T3 cells were seeded in a 96-well plate one day before the experiment to reach 80% confluency. Cells were then incubated with various concentration of bacterial sensitizers at 37° C. with 5% CO2 for 24 h, then 10 μL of CCK-8 solution was added to each well, and the plate was incubated for an additional at 37° C. 2 h with 5% CO2. The optical density at 450 nm was recorded by plate reader; and the results were calculated as a percentage of viability compared with the untreated control.

B. subtilis = experiment: MIC determination and sensitization fold on B. subtilis; format: cell-based; settings: B. subtilis; for Sensitization fold / Sensitization: erythromycin; for MIC: Bacillus subtilis, 24 h, compound alone, read-out: MIC; for Sensitization: compound up to 12 μM
[3] = Cytotoxicity on mammalian cells (CCK-8), NIH3T3; format: cell-based; settings: mouse, NIH3T3 cells, 3T3 cell line
Procedure: as §4

HEK293 cells = experiment: Cytotoxicity on mammalian cells (CCK-8), HEK293; format: cell-based; settings: Homo sapiens
Procedure: as §4

[4] = 10 μM compound, rifampicin as the antibiotic (Table 6)
[5] = E. coli, rifampicin, compound at 25 μM
[6] = E. coli, compound alone, read-out: MIC
[7] = MRSA, compound alone, read-out: MIC

N=C(N)Nc1ccc(-c2ccc(-c3ccc(NC(=N)N)cc3)cc2)cc1 [Compound A]
Sensitization ability: fold sensitization of E. coli towards rifampicin (E. coli; compound at 25 μM): At 25 μM, sensitize E. coli towards rifampicin for 256-fold; | IC50 at 24 h [1]: 50 µM

N=C(N)Nc1ccc(-c2ccc(-c3nc4ccc(NC(=N)N)cc4[nH]3)o2)cc1 [Compound B]
Sensitization ability: fold sensitization of E. coli towards rifampicin (E. coli; compound at 25 μM): At 25 μM, sensitize E. coli towards rifampicin for 16-fold; | IC50 at 24 h [1]: 100 µM

N=C(N)Nc1ccc(-c2ccc(-c3ccc(NC(=N)N)cc3Cl)o2)c(Cl)c1 [Compound C]
Sensitization ability: fold sensitization of E. coli towards rifampicin (E. coli; compound at 4 μM): At 4 μM, sensitize E. coli towards rifampicin for 516-fold; | IC50 at 24 h [1]: 50 µM

N=C(N)c1ccc(-c2ccc(-c3ccc(-c4ccc(C(=N)N)o4)o3)o2)cc1 [Compound M]
Sensitization ability: fold sensitization of E. coli towards rifampicin (E. coli; compound at 15 μM): 32 fold | Sensitization ability: fold sensitization of E. coli towards rifampicin (E. coli; compound at 25 μM): 516 fold | IC50 at 24 h [1]: 100 µM

N=C(N)c1ccc(-c2ccc(-c3ccc(-c4ccc(C(=N)N)o4)o3)o2)o1 [Compound N]
Sensitization ability: fold sensitization of E. coli towards rifampicin (E. coli; compound at 25 μM): At 25 μM, sensitize E. coli towards rifampicin for 64-fold. | IC50 at 24 h [1]: 100 µM

N=C(N)Nc1ccc(-c2ccc(-c3ccc(-c4ccc(NC(=N)N)cc4)o3)o2)cc1 [Compound O]
Sensitization ability: fold sensitization of E. coli towards rifampicin (E. coli; compound at 10 μM): At 10 μM, sensitize E. coli towards rifampicin for 256-fold. | IC50 at 24 h [1]: > 100 µM

N=C(N)c1ccc(-c2ccc(-c3ccc(-c4ccc(C(=N)N)o4)s3)s2)o1 [Compound P]
Sensitization ability: fold sensitization of E. coli towards rifampicin (E. coli; compound at 25 μM): At 25 μM, sensitize E. coli towards rifampicin for 32-fold; | IC50 at 24 h [1]: 50 µM

N=C(N)c1ccc(-c2ccc(-c3ccc(-c4ccc(C(=N)N)s4)o3)o2)s1 [Compound Q]
Sensitization ability: fold sensitization of E. coli towards rifampicin (E. coli; compound at 25 μM): At 25 μM, sensitize E. coli towards rifampicin for 32-fold; | IC50 at 24 h [1]: 50 µM

Cc1cc(COc2ccc(CN)cc2)cc(COc2ccc(CN)cc2)c1 [MD-106, ((((S-methyl-1,3-phenylene)bis(methylene))bis(oxy))bis(4,1-phenylene))dimethanamine dihydrochloride]
Sensitization fold (E. coli (ATCC 25922); [4]): 1 fold | Sensitization fold (E. coli (ATCC 25922); [5]): 4-fold at 25 μM | MIC (E. coli (ATCC 25922); [6]): 100 µM | sensitization activity (E. coli (ATCC 25922); rifampicin): no sensitization activity | MIC (MRSA (ATCC 33592); [7]): > 50 µM | CC50 at 24 h [2]: 25 µM | Sensitization fold (B. subtilis; compound at 4 μM): 4-fold at 4 μM | Sensitization fold (B. subtilis; compound at 12 μM): 16-fold at 12 μM | MIC (B. subtilis): > 50 µM | CC50 at 24 h [1]: 12.5 µM | CC50 at 24 h [3]: 25 µM

CC(C)NC(=N)c1ccc(OCc2cccc(COc3ccc(C(=N)NC(C)C)cc3F)c2F)c(F)c1 [MD-111, 1,3-Bis {(4-isopropylamidino-2-fluoro)-phenoxymethyl}-2-fluorobenzene dihydrochloride]
Sensitization (E. coli (ATCC 25922); E. coli, rifampicin): No effect up to 25 μM. | MIC (E. coli (ATCC 25922); [6]): 50 µM | Sensitization fold (MRSA (ATCC 33592); MRSA, compound at 6 μM): 8 -fold at 6 μM. | Sensitization fold (MRSA (ATCC 33592); MRSA, compound at 12 μM): 16-fold at 12 μM, | MIC (MRSA (ATCC 33592); [7]): 50 µM | CC50 at 24 h [2]: > 100 µM | Sensitization (B. subtilis): No effect up to 12 μM. | MIC (B. subtilis): 25 µM | CC50 at 24 h [3]: > 100 µM

Cc1cc(COc2ccc(C3=NCCCN3)cc2)cc(COc2ccc(C3=NCCCN3)cc2)c1 [MD-113, 2,2′-((((5-methyl-1,3-phenylene)bis(methylene))bis(oxy))bis(4,1-phenylene))bis(1,4,5,6-tetrahydropyrimidine) dihydrochloride]
Sensitization (E. coli (ATCC 25922); E. coli, rifampicin): No effect up to 25 μM. | MIC (E. coli (ATCC 25922)): > 100 µM | sensitization activity (E. coli (ATCC 25922); rifampicin): no sensitization activity | Sensitization fold (MRSA (ATCC 33592); MRSA, compound at 12 μM): 4-fold at 12 μM. | Sensitization fold (MRSA (ATCC 33592); MRSA, compound at 25 μM): 8-fold at 25 μM, | MIC (MRSA (ATCC 33592)): > 50 µM | CC50 at 24 h [2]: > 100 µM | Sensitization (B. subtilis): No effect up to 12 μM. | MIC (B. subtilis): 50 µM | CC50 at 24 h [3]: > 100 µM

CC(C)(C)c1cc(COc2ccc(C(=N)N)cc2F)cc(COc2ccc(C(=N)N)cc2F)c1 [MD-115, 4,4′-(((5-(tert-butyl)-1,3-phenylene)bis(methylene))bis(oxy))bis(3-fluorobenzimidamide) dihydrochloride]
Sensitization fold (E. coli (ATCC 25922); [4]): 256 fold | Sensitization fold (E. coli (ATCC 25922); E. coli, rifampicin, compound at 10 μM): 256-fold at 10 μM | MIC (MRSA (ATCC 33592)): 25 µM | IC50 (HEK293 cells; HEK293): 25 to 50 µM | CC50 at 24 h [2]: 25 to 50 µM | Sensitization fold (B. subtilis; compound at 6 μM): 8-fold at 6 μM | CC50 at 24 h [1]: 25 µM | CC50 at 24 h [3]: 25 to 50 µM

Cc1cc(COc2cccc(C(=N)N)c2)cc(COc2cccc(C(=N)N)c2)c1 [MD-116, 3,3′-(((5-methyl-1,3-phenylene)bis(methylene))bis(oxy))dibenzimidamide dihydrochloride]
Sensitization fold (E. coli (ATCC 25922); [5]): 8-fold at 25 μM | MIC (E. coli (ATCC 25922)): 100 µM | Sensitization fold (MRSA (ATCC 33592); MRSA, compound at 12.5 μM): 4-fold at 12.5 μM. | CC50 at 24 h [2]: > 100 µM | Sensitization fold (B. subtilis; compound at 12 μM): 32-fold at 12 μM | CC50 at 24 h [3]: > 100 µM

Cc1cc(CSc2ccc(C(=N)N)cc2)cc(CSc2ccc(C(=N)N)cc2)c1 [MD-117, 4,4′-(((5-methyl-1,3-phenylene)bis(methylene))bis(sulfanediyl)) dibenzimidamide dihydrochloride]
Sensitization fold (E. coli (ATCC 25922); [4]): 32 fold | Sensitization fold (E. coli (ATCC 25922); E. coli, rifampicin, compound at 6 μM): 8-fold at 6 μM. | Sensitization fold (E. coli (ATCC 25922); E. coli, rifampicin, compound at 12.5 μM): 32-fold at 12.5 μM | MIC (E. coli (ATCC 25922); [6]): 50 µM | MIC (MRSA (ATCC 33592); [7]): 12.5 µM | IC50 (HEK293 cells; HEK293 cells (Table 6), read-out: IC50): 25 to 50 µM | CC50 at 24 h [2]: 25 to 50 µM | Sensitization fold (B. subtilis; compound at 3 μM): 8-fold at 3 μM. | Sensitization fold (B. subtilis; compound at 6 μM): 32-fold at 6 μM | MIC (B. subtilis): 25 µM | CC50 at 24 h [3]: 25 to 50 µM
